Results taken from US20060171911A1, “Diiodomethyl-p-tolylsulfone as a particulate dispersion in a liquid solvent in combination with an anti-dandruff active” (priority 2005, published 2006).

Assays:
[1] = cited from earlier work
fungal [2] = test: Anti-fungal activity, dispersed particle form vs. dissolved in an effective solvent
fungal [3] = conditions: cited from earlier work

## Cc1ccc(S(=O)(=O)C(I)I)cc1 [diiodomethyl-p-tolylsulfone, Benzene, 1-[(diiodomethyl)sulfonyl]-4-methyl-(9CI)]
[1]
  water solubility: less than 5 ppm
Fungal [2]
  activity retained in dispersed particle form vs. dissolved in an effective solvent: about 100%
Fungal [3]
  pH range over which effective: 2-11 pH
